From the NIST ThermoML archive (doi:10.1021/je200628n)
Numbers after ± are expanded uncertainties.

Experiment: activity coefficient (dimensionless); of the first substance listed, at infinite dilution; xn = mol fraction of the nth substance listed
Conditions: 101 kPa, Liquid, Chromatography, x1 = 0

Row | activity coefficient (348.15 K) | activity coefficient (348.25 K) | activity coefficient (353.15 K) | activity coefficient (358.25 K) | activity coefficient (363.21 K) | SMILES | further results
1 | 3.14 ± 0.16 |  |  |  |  | C=CCCCCCCCC [1-decene] + NCCCCCCCCN | activity coefficient (328.15 K): 4.24 ± 0.22; activity coefficient (338.15 K): 3.58 ± 0.18; activity coefficient (343.15 K): 3.33 ± 0.17
2 | 2.77 ± 0.14 |  |  |  |  | C=CCCCC [hex-1-ene] + NCCCCCCCCN | activity coefficient (328.15 K): 3.18 ± 0.16; activity coefficient (338.15 K): 2.94 ± 0.15; activity coefficient (343.15 K): 2.85 ± 0.15
3 |  |  |  |  |  | CCCCC [pentane] + NCCCCCCCCCCN | activity coefficient (3.9 K): 353 ± 18; activity coefficient (4.022 K): 348 ± 18; activity coefficient (4.331 K): 338 ± 18
4 |  | 1.55 ± 0.076 | 1.45 ± 0.07 | 1.35 ± 0.064 | 1.26 ± 0.058 | CCCOC(C)=O [propyl ethanoate] + NCCCCCCCCCCCCN | 
5 | 0.951 ± 0.042 |  |  |  |  | CCOC(C)=O [ethyl acetate] + NCCCCCCCCCCN | activity coefficient (338.2 K): 1.16 ± 0.053; activity coefficient (353.22 K): 0.868 ± 0.04
6 |  | 0.931 ± 0.042 | 0.975 ± 0.043 | 1.04 ± 0.046 | 1.09 ± 0.049 | CCCO [propan-1-ol] + NCCCCCCCCCCCCN | 
7 | 1.61 ± 0.079 |  |  |  |  | c1ccccc1 [benzene] + NCCCCCCCCCCN | activity coefficient (338.2 K): 1.72 ± 0.086; activity coefficient (353.22 K): 1.58 ± 0.077
8 |  | 5.54 ± 0.28 | 5.43 ± 0.28 | 5.27 ± 0.27 | 5.19 ± 0.27 | CCCCCCCC [octane] + NCCCCCCCCCCCCN | 
9 | 1.09 ± 0.049 |  |  |  |  | ClCCl [dichloromethane] + NCCCCCCCCCCN | activity coefficient (338.2 K): 1.19 ± 0.054; activity coefficient (353.22 K): 0.985 ± 0.043
10 | 4.79 ± 0.25 |  |  |  |  | CCCCCCCC [octane] + NCCCCCCCCCCN | activity coefficient (338.2 K): 5.24 ± 0.27; activity coefficient (353.22 K): 4.55 ± 0.23
11 | 2.93 ± 0.15 |  |  |  |  | C=CCCCCC [1-heptene] + NCCCCCCCCN | activity coefficient (328.15 K): 3.59 ± 0.18; activity coefficient (338.15 K): 3.21 ± 0.17; activity coefficient (343.15 K): 3.03 ± 0.15
12 |  | 4.5 ± 0.23 | 4.27 ± 0.22 | 4.11 ± 0.21 | 3.94 ± 0.2 | CCCCCCCl [1-chlorohexane] + NCCCCCCCCCCCCN | 
13 | 3.72 ± 0.19 |  |  |  |  | CCCCCC [hexane] + NCCCCCCCCN | activity coefficient (328.15 K): 4.03 ± 0.21; activity coefficient (338.15 K): 3.83 ± 0.2; activity coefficient (343.15 K): 3.75 ± 0.19
14 | 0.369 ± 0.029 |  |  |  |  | CO [methanol] + NCCCCCCCCN | activity coefficient (328.15 K): 0.284 ± 0.028; activity coefficient (338.15 K): 0.317 ± 0.028; activity coefficient (343.15 K): 0.34 ± 0.028
15 |  | 5.21 ± 0.27 | 5.13 ± 0.26 | 5.04 ± 0.26 | 4.97 ± 0.26 | CCCCCCC [heptane] + NCCCCCCCCCCCCN | 
16 | 4.55 ± 0.23 |  |  |  |  | CCCCCC [hexane] + NCCCCCCCCCCN | activity coefficient (338.2 K): 4.96 ± 0.26; activity coefficient (353.22 K): 4.41 ± 0.23

Row | SMILES | activity coefficient (348.15 K) | activity coefficient (348.25 K) | activity coefficient (353.15 K) | activity coefficient (358.25 K) | activity coefficient (363.21 K) | further results
17 | CCCCOC(C)=O [butyl ethanoate] + NCCCCCCCCN | 1.05 ± 0.047 |  |  |  |  | activity coefficient (328.15 K): 1.51 ± 0.073; activity coefficient (338.15 K): 1.25 ± 0.058; activity coefficient (343.15 K): 1.14 ± 0.052
18 | CCCCOC(C)=O [butyl ethanoate] + NCCCCCCCCCCCCN |  | 1.69 ± 0.084 | 1.57 ± 0.077 | 1.46 ± 0.07 | 1.36 ± 0.065 | 
19 | CCOCC [diethyl ether] + NCCCCCCCCCCCCN |  | 4.45 ± 0.23 | 4.37 ± 0.22 | 4.33 ± 0.22 | 4.25 ± 0.22 | 
20 | CCCCCl [1-chlorobutane] + NCCCCCCCCCCCCN |  | 2.71 ± 0.14 | 2.63 ± 0.14 | 2.56 ± 0.13 | 2.46 ± 0.13 | 
21 | Cc1ccccc1 [toluene] + NCCCCCCCCCCCCN |  | 2.6 ± 0.13 | 2.51 ± 0.13 | 2.42 ± 0.12 | 2.33 ± 0.12 | 
